From US20190365785A1, “INHIBITION OF UNFOLDED PROTEIN RESPONSE FOR SUPPRESSING OR PREVENTING ALLERGIC REACTION TO FOOD” (Children's Hospital Medical Center, priority 2017, published 2019)

Assays:
CACO-2 cells [1] = assay: CACO-2 cells cultured with egg yolk plasma or peanut extract, with or without lipase inhibitor Orlistat; type: cell-based, human; settings: 24 hours, FIG. 3
Procedure: CACO-2 cells were cultured for 24 hours with medium alone, egg yolk plasma, or peanut extract, with or without the lipase inhibitor Orlistat. mRNA was extracted and reverse transcribed, after which UPR-associated gene expression and pro-Th2 cytokine gene expression were determined by real time PCR. […] CACO-2 cells were obtained from the American Type Culture Collection (ATCC), catalog number HTB-37. These cells were grown in ATCC-formulated Eagle's Minimum Essential Medium (EMEM) (Cat. No. 30-2003), supplemented with fetal bovine serum (FBS) to a final concentration of 20% (ATCC® Cat. No. 30-2020) and Gibco antibiotic-antimycotic mixture. The cells were cultured in 6-well, 12-well, or 24-well culture plates to approximately 85%-90% confluency. On the day of experiment, EMEM medium was prepared with the appropriate concentrations of stimulants and/or inhibitors and added to the cells. Following the period of culture (usually 6 or 24 hours), the cells were washed and lysed, and total RNA was purified using PureLink™ RNA Mini Kit (Thermo Fisher Cat. No. 12183018A). The purified total RNA was used to generate cDNA using a High-Capacity cDNA Reverse Transcription Kit (Applied Biosystems, Cat. No. 4368814). Gene expression was analyzed using the qPCR method with a BioRad My iQ™ Detection system, and compared to the expression of the GAPDH housekeeping gene.

CACO-2 cells [2] = assay: Pro-Th2 cytokine expression by CACO-2 cells cultured with EYP, HC, MCT or sodium palmitate, with or without UPR inhibitors; type: cell-based, human
Procedure: To evaluate whether the UPR induces pro-Th2 gene expression in cultured human intestinal epithelial cells, we evaluated the abilities of three UPR inhibitors to inhibit the ability of egg yolk plasma (EYP), heavy cream (HC), medium chain triglycerides (MCT), or sodium palmitate to induce pro-Th2 cytokine expression by CACO-2 cells. CACO-2 cells were cultured for 24 hours with medium alone, EW, negative control, EYP, HC, MCT, or sodium palmitate (positive control for UPR induction), with or without the UPR inhibitors metformin, TUDCA, or 4-PBA. mRNA was prepared, reverse-transcribed, and quantitated by real time PCR. […] CACO-2 cells were obtained from the American Type Culture Collection (ATCC), catalog number HTB-37. These cells were grown in ATCC-formulated Eagle's Minimum Essential Medium (EMEM) (Cat. No. 30-2003), supplemented with fetal bovine serum (FBS) to a final concentration of 20% (ATCC® Cat. No. 30-2020) and Gibco antibiotic-antimycotic mixture. The cells were cultured in 6-well, 12-well, or 24-well culture plates to approximately 85%-90% confluency. On the day of experiment, EMEM medium was prepared with the appropriate concentrations of stimulants and/or inhibitors and added to the cells. Following the period of culture (usually 6 or 24 hours), the cells were washed and lysed, and total RNA was purified using PureLink™ RNA Mini Kit (Thermo Fisher Cat. No. 12183018A). The purified total RNA was used to generate cDNA using a High-Capacity cDNA Reverse Transcription Kit (Applied Biosystems, Cat. No. 4368814). Gene expression was analyzed using the qPCR method with a BioRad My iQ™ Detection system, and compared to the expression of the GAPDH housekeeping gene.

[3] = tested on: human intestinal organoids (HIO); assay: UPR-associated and pro-Th2 cytokine gene expression in human intestinal organoids injected with palmitate ± metformin or TUDCA; type: cell-based; settings: lumen injection, FIG. 6A-6B
Procedure: HIO were produced from human peripheral blood pluripotent stem cells having a single UPR-associated gene deleted by CRISPR/Cas9. Applicant injected the lumens of HIO with culture medium or palmitate to induce increased UPR-associated and pro-Th2 cytokine gene expression, and further injected the HIO lumens with metformin or TUDCA. mRNA levels for the UPR-associated and pro-Th2 cytokine genes were determined by real-time PCR.

BALB/c mice = assay: UPR inhibitors in drinking water or oral in mouse model of food (egg) allergy; type: in vivo; settings: for intestinal UPR-related gene expression (except for BiP and ATF6) / intestinal pro-Th2 cytokine expression: 500 mg/kg/day in drinking water, FIG. 15A-15E; for hypothermia / mouse mast cell protease 1 (MMCP1) response / small intestinal UPR-related gene expression (except ATF6) / small intestinal pro-Th2 cytokine gene expression: mice induced to develop food allergy, 500 mg/kg in drinking water, FIG. 14
Procedure: BALB/c mice were induced to develop food allergy and were then treated with 500 mg/kg doses of metformin or TUDCA in drinking water.
BALB/c mice with established egg allergy were provided with drinking water that contained 500 mg/kg/day of metformin or TUDCA, or with ordinary drinking water. Both metformin and TUDCA suppressed intestinal UPR-related gene expression (except for BiP and ATF6) and pro-Th2 cytokine expression. Note the large increases in intestinal UPR-associated and pro-Th2 gene expression compared to naïve mice, and the partial suppression of UPR-associated and pro-Th2 genes by metformin and TUDCA (FIG. 15E).
BALB/c mice with established egg allergy were administered egg yolk plasma with or without 1 g/kg/day or 2 g/kg/day of metformin. Pro-Th2 cytokine and UPR-related gene expression was inhibited in skin (FIG. 16A) and lung (FIG. 16B).

CACO-2 cells [4] = assay: UPR-related and pro-Th2 cytokine gene expression in CACO-2 cells cultured with lipid-free peanut extract ± metformin; type: cell-based, human; settings: CACO-2 cells with peanut extract, treated with metformin
Procedure: Because the UPR can be induced by multiple mechanisms that are associated with cell stress, including mechanisms that are not associated with lipids, Applicant investigated the ability of aqueous extracts of allergenic foods other than eggs and milk to induce UPR-associated and pro-Th2 cytokine gene expression, and the ability of metformin to suppress these responses. CACO-2 cells were cultured for 24 hours with medium alone or with a lipid-free peanut extract±metformin. mRNA was reverse-transcribed and gene expression was determined by real time PCR.
CACO-2 cells were obtained from the American Type Culture Collection (ATCC), catalog number HTB-37. These cells were grown in ATCC-formulated Eagle's Minimum Essential Medium (EMEM) (Cat. No. 30-2003), supplemented with fetal bovine serum (FBS) to a final concentration of 20% (ATCC® Cat. No. 30-2020) and Gibco antibiotic-antimycotic mixture. The cells were cultured in 6-well, 12-well, or 24-well culture plates to approximately 85%-90% confluency.
On the day of experiment, EMEM medium was prepared with the appropriate concentrations of stimulants and/or inhibitors and added to the cells. […] Gene expression was analyzed using the qPCR method with a BioRad My iQ™ Detection system, and compared to the expression of the GAPDH housekeeping gene.

CACO-2 cells [5] = assay: Pro-Th2 cytokine protein production by CACO-2 cells (immunoprecipitation and Western blot); type: cell-based, human; settings: 24 hr, Western blot, FIG. 4
Procedure: CACO-2 cells were cultured for 24 hr±palmitate or EYP. Cell lysates were prepared and normalized by protein concentration and direct α/β-tubulin Western blot. Lysates were serially incubated with anti-IL-25+protein G beads, anti-IL-33+protein G beads, and anti-TSLP+protein G beads. Laemmli buffer eluates from beads were analyzed by electrophoresis on a 4-20% polyacrylamide gel, blotted onto a PVDF membrane, and visualized by incubation with biotinylated anti-IL-25, anti-IL-33, or anti-TSLP mAb, followed by streptavidin-peroxidase and ECL WB substrate.

[6] = 24 hours, real time PCR, FIG. 1
[7] = summary statement of Applicant's results

Compound | suppression of EYP-, HC-, MCT- and palmitate-induced expression of the pro-Th2 cytokines (CACO-2 cells [2]; [6]) | palmitate-induced UPR-associated and pro-Th2 cytokine gene expression [3] | intestinal UPR-related gene expression (except for BiP and ATF6) (BALB/c mice; established egg allergy) | intestinal pro-Th2 cytokine expression (BALB/c mice; established egg allergy) | hypothermia (BALB/c mice) | mouse mast cell protease 1 (MMCP1) response (BALB/c mice) | small intestinal UPR-related gene expression (except ATF6) (BALB/c mice) | small intestinal pro-Th2 cytokine gene expression (BALB/c mice) | established food allergy (BALB/c mice; [7]) | also measured
CCCCCCCCCCC[C@@H](C[C@@H]1OC(=O)[C@H]1CCCCCC)OC(=O)[C@H](CC(C)C)NC=O [Orlistat] |  |  |  |  |  |  |  |  |  | UPR-related or pro-Th2 gene expression by peanut extract (CACO-2 cells [1]): no effect; egg yolk plasma-induced UPR-associated and pro-Th2 cytokine gene expression (CACO-2 cells [1]): suppressed
C[C@H](CCC(=O)NCCS(=O)(=O)O)[C@H]1CC[C@H]2[C@@H]3[C@@H](O)C[C@@H]4C[C@H](O)CC[C@]4(C)[C@H]3CC[C@]12C [TUDCA, tauroursodeoxycholic acid] | strong suppression | suppressed | suppressed | suppressed | suppression | suppression | suppression | suppression | suppresses | 
O=C(O)CCCc1ccccc1 [4-PBA, 4-phenylbutyrate] | strong suppression |  |  |  |  |  |  |  | suppresses | 
CN(C)C(=N)N=C(N)N [metformin] | strong suppression | suppressed | suppressed | suppressed | suppression | suppression | suppression | suppression | suppresses | pro-Th2 cytokine gene induction by egg and milk lipid fractions and aqueous extracts of peanuts, walnut, codfish (CACO-2 cells [2]; summary, every allergen tested): suppresses pro-Th2 cytokine gene induction in every case; expression of UPR-related genes (CACO-2 cells [4]; FIG. 2 A): reduced expression; expression of pro-Th2 cytokine genes (CACO-2 cells [4]; FIG. 2 B): reduced expression; Pro-Th2 cytokine and UPR-related gene expression in skin (BALB/c mice; established egg allergy, egg yolk plasma, 1 g/kg/day or 2 g/kg/day oral, FIG. 16A): inhibited; Pro-Th2 cytokine and UPR-related gene expression in lung (BALB/c mice; established egg allergy, egg yolk plasma, 1 g/kg/day or 2 g/kg/day oral, FIG. 16B): inhibited; development of food allergy (BALB/c mice; [7]): suppresses
CCCCCCCCCCCCCCCC(=O)[O-].[Na+] [sodium palmitate] |  |  |  |  |  |  |  |  |  | induction of expression of the pro-Th2 cytokines (CACO-2 cells [2]; 24 hours, stimulant alone, real time PCR, FIG. 1): induced increased expression; pro-Th2 cytokine protein expression (IL-25, IL-33, TSLP) (CACO-2 cells [5]): increase; UPR-dependent induction of pro-Th2 cytokine genes [3]: stimulated
